Results on six compounds are retold here after ChEMBL document CHEMBL1125876, “Conformationally defined neurotransmitter analogues. Selective inhibition of glutamate uptake by one pyrrolidine-2,4-dicarboxylate diastereomer” (1991).

Common to all, as to parameters: scale not given: the % may be the effect or the level left
In assay [1] the target is T1, Glutamate NMDA receptor (Rattus norvegicus) (UniProt P35439+Q00959+Q00960+Q00961+Q62645+Q8VHN2+Q9R1M7). As to the kind of experiment: Compound tested for its ability to inhibit [3H]- -L-Glu binding to N-methyl-D-aspartate glutamate receptor at the concentration of 100 uM. Format: protein-complex assay.
Assay [2] has as its target Glutamate receptor ionotropic, kainate 2 (Rattus norvegicus) (UniProt P42260). Description: Compound tested for its ability to inhibit [3H]- KA binding to ionotropic glutamate receptor kainate at the concentration of 100 uM.
The species entered for a further assay is Rattus norvegicus. As to the kind of experiment: Comparative inhibition of L-Glutamate uptake at the concentration of 5 uM of [3H]-L- glutamate radioligand. Format: functional.
Assay [3] has as its target T1, Glutamate NMDA receptor (Rattus norvegicus). As to the kind of experiment: Compound tested for its ability to inhibit [3H]- -L-Glu binding to N-methyl-D-aspartate glutamate receptor at the concentration of 20 uM. Format: protein-complex assay.

Sequence of Glutamate receptor ionotropic, kainate 2 (Rattus norvegicus) (P42260 whole entry): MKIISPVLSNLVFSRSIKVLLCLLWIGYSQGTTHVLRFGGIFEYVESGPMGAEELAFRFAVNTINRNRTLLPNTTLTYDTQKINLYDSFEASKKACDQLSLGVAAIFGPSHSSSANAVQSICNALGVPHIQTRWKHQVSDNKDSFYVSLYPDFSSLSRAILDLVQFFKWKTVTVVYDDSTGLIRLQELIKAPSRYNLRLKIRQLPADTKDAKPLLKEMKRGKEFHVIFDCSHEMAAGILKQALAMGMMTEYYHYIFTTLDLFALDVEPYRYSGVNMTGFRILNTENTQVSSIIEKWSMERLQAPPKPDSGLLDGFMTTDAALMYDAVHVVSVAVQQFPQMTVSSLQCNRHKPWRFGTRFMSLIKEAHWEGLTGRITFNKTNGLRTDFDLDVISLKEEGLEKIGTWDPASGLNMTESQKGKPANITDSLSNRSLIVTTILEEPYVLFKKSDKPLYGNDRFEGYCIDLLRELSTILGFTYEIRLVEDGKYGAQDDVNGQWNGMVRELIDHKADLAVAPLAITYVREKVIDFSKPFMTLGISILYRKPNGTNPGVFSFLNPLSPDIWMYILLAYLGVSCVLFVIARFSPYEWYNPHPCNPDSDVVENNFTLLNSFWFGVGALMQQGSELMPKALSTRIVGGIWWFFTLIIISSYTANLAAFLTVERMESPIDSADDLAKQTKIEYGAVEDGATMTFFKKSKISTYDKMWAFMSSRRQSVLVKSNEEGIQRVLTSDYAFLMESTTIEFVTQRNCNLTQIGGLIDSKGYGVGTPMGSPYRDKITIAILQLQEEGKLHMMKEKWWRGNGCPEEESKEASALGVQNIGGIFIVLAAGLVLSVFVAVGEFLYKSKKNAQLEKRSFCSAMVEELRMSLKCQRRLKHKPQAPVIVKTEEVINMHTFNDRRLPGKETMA

Take `O=C(O)[C@H]1CN[C@H](C(=O)O)C1`: the Control worked out at 87% in assay [1], 102% in assay [2] and 45% in the assay filed under Rattus norvegicus.

In the assay listed under Rattus norvegicus, `CC(C)[C@H]1CN[C@H](C(=O)O)[C@H]1CC(=O)O` [DIHYDROKAINATE] came in with a Control of 93%.

`N[C@H](CC(=O)O)C(=O)O` [D-ASPARTATE] displayed a Control in the assay filed under Rattus norvegicus of 58%.

Turning to `O=C(O)[C@@H]1CN[C@@H](C(=O)O)C1`, the Control was determined as 95% in assay [1] and 92% in assay [2].

Consider `O=C(O)[C@@H]1CN[C@H](C(=O)O)C1`, for which the Control in assay [1] is 89%; in assay [2], 100%.

Consider `O=C(O)[C@H]1CN[C@@H](C(=O)O)C1`, for which the Control turned out to be 38% in assay [1], 76% in assay [3] and 101% in assay [2].
